Experiment [1] relates to human primary melanocytes. In words: Melanin content of human primary melanocyte cultures treated for ten days, with or without prostaglandin E2. The experiment is classed as cell-based. The conditions noted are these: FIGS. 1 and 2. As for the experimental part: Six cultures of human primary melanocytes were grown for four days. Thereafter, the cultures were treated with 10 μL of one of Compositions A-E each day for ten days. Composition A contained 0.005 wt. % of acetyl trifluoromethylphenyl valylglycine, 2 wt. % ethanol, and the remainder being water. Composition B contained 0.05 wt. % of acetyl trifluoromethylphenyl valylglycine, 2 wt. % ethanol, and the remainder being water. Composition C contained 30 nM of prostaglandin E2, 2 wt. % ethanol, and the remainder being water. Composition D contained 0.005 wt. % of acetyl trifluoromethylphenyl valylglycine, 30 nM of prostaglandin E2, 2 wt. % ethanol, and the remainder being water. Composition E contained 0.05 wt. % of acetyl trifluoromethylphenyl valylglycine, 30 nM of prostaglandin E2, 2 wt. % ethanol, and the remainder being water. All weight percentages for Compositions A-E were based on the total weight of the respective composition. […]
After the 10 days, the cells of the culture were lysed and the melanin content was measured. Specifically, the cells were stained with Fontana Masion Staining and measured with a plate reader. A BCA assay was performed to quantify the protein concentration. […] To eliminate the melanin content caused by increased NHEM cell number in the system, the final melanin level was calculated by dividing the protein content in each culture. […]

The next experiment concerns COX-2. In words: qRT-PCR gene expression of COX-2 in NHEM after 10 days of treatment. The experiment is classed as cell-based, human. The following applies: FIG. 3A. As for the experimental part:
(§1) The efficacy of acetyl trifluoromethylphenyl valylglycine to modulate key gene markers in the inflammatory pathway as it relates to post inflammatory hyperpigmentation conditions was evaluated. Specifically, four well plates were seeded with a single cell culture of normal human epidermal melanocyte (NHEM), and grown in a culture medium (namely, culture medium no. M254500, obtained from ThermoFisher™) and supplemented with Gibco™ human melanocyte growth supplement (namely, Human Melanocyte Growth Supplement-2 no. S0165, obtained from ThermoFisher™) at a density of 10,000 cells/cm^2 for 3 to 4 days.
(§2) The culture medium was then replaced by culture mediums containing different treatments. Specifically, the cell cultures were treated with 10 μL of one of Compositions C-E once a day for ten days (except weekends). After 10 days, the cells were trypsinized and centrifuged at 180×gravity for 7 minutes followed by RNA isolation using a QIAshredder cell lysate homogenizer no. […] The RNA was then quantified using the NanoDrop Spectrophotometer.
(§3) After RNA isolation was completed, samples of 1 μg of RNA from each cell culture was used for cDNA reactions for reverse transcription. […] The ΔΔCt values were then determined for each biological replicate by normalizing to the appropriate untreated control average ΔCt value. The ΔΔCt values were then used to calculate relative quantification (RQ) values.

A further experiment relates to p38 MAPK. Nature of the experiment: qRT-PCR gene expression of p38 in NHEM after 10 days of treatment. Type of experiment: cell-based, human. The conditions noted are these: FIG. 3B. As for the experimental part:
as §1, §2, §3
For orientation: In qPCR the cycle at which signal appears reflects the starting amount.

Experiment [2] relates to tri-culture model (Normal Human Epidermal Melanocytes, Normal Human Epidermal Keratinocytes, and Normal Human Dermal Fibroblast). Nature of the experiment: Melanin synthesis inhibition in tri-culture model. Type of experiment: cell-based. The following applies: 100 μM, tri-culture model (K/M/F), once a day for 10 days; FIG. 5. As for the experimental part:
(§4) Tri-culture models, co-culture models, and single cell culture models were treated with a composition containing acetyl trifluoromethylphenyl valylglycine to assess the effects on different skin cells. Specifically, the three cultures for each of the tri-culture models (Normal Human Epidermal Melanocytes, Normal Human Epidermal Keratinocytes, and Normal Human Dermal Fibroblast), co-culture models (Normal Human Epidermal Melanocytes and Normal Human Epidermal Keratinocytes), and single cell culture models (Normal Human Epidermal Melanocytes) were grown for four days. The cultures were then treated once a day for 10 days with a composition containing 10% DMSO, water, and lipoic acid (Composition G) in an amount to deposit […] to the cell culture models, a composition containing 10% DMSO, water, and acetyl trifluoromethylphenyl valylglycine (Composition H) in an amount to deposit […] to the cell culture models, or a composition containing 10% DMSO, water, and acetyl trifluoromethylphenyl valylglycine (Composition I) in an amount to deposit […] to the cell culture models. The media for the cultures was changed each day over the ten-day period.
(§5) After the 10 days, the cells of the culture were lysed and the melanin content was measured using a procedure and equipment similar to that described in Example 2. […]

In experiment [3] the test system is co-culture models (Normal Human Epidermal Melanocytes and Normal Human Epidermal Keratinocytes). Nature of the experiment: Melanin synthesis inhibition in co-culture model. The conditions noted are these: co-culture on melanocytes and keratinocytes, once a day for 10 days; FIG. 5. Type of experiment: cell-based. As for the experimental part:
as §4, §5

Experiment [4] concerns single cell culture models (Normal Human Epidermal Melanocytes). In words: Melanin synthesis inhibition in single cell culture model. The experiment is classed as cell-based. The following applies: FIG. 5. As for the experimental part: as §4, §5
Where [5] appears, read: prostaglandin E2 alone (30 nM), NHEM.
[6] abbreviates: with 30 nM prostaglandin E2, NHEM.

Results on two compounds are retold here after US12036300B2, “Methods and compositions for improving skin” (L'OREAL, priority 2021, dated 2024).

Structures are written as SMILES.

Take `CCCCC[C@H](O)/C=C/[C@H]1[C@H](O)CC(=O)[C@@H]1C/C=C\CCCC(=O)O` [prostaglandin E2, reference compound]: the melanin production result in experiment [1] (prostaglandin E2 alone (30 nM), once a day for ten days) is “stimulates melanin production”. Further, in the experiment with COX-2 (setting [5]), the COX-2 expression result is “triggered the cascade”. For the same compound, the “p38 MAPK expression” value in the experiment with p38 MAPK (setting [5]) was “triggered the cascade”.
With `CC(=O)N(c1cccc(C(F)(F)F)c1)C(C(=O)NCC(=O)O)C(C)C` (stereo not shown) [acetyl trifluoromethylphenyl valylglycine], the “melanin synthesis after induction by prostaglandin E2” value in experiment [1] (with 30 nM prostaglandin E2, once a day for ten days, melanin normalised to protein content) is given as “reduces melanin synthesis”. Further, the “level of COX-2 induced by prostaglandin E2” value in the experiment on COX-2 (setting [6]) is on record as “significantly attenuated”. In addition, in the experiment with p38 MAPK (setting [6]), the “level of P38 MAPK induced by prostaglandin E2” value is “significantly attenuated”. Besides, the L-Tyrosine-induced melanin synthesis entry in experiment [2] was “inhibited L-Tyrosine-induced melanin synthesis”. Besides, the melanin synthesis result in experiment [3] is recorded as “did not appear to inhibit melanin synthesis”; in experiment [4] (melanocytes cultures, once a day for 10 days), “an inhibitory effect was observed”. In experiment [4] (melanocytes cultures compared with tri-culture), the “inhibitory effect on melanin synthesis relative to tri-culture” value is given as “less than the observed in the tri-culture”.
